The values below come from publication PMC7771544 (ChemMedChem, 2016).

One test has as its target MST3 (Homo sapiens, UniProt Q9Y6E0). The experiment in a line: 33P-radiolabeled kinase assay. The test is classed as biochemical.
Another test relates to CDK2. Particulars: cited from earlier work.
The next test deals with CDK1. The note with it: cited from earlier work.

MST3, sequence (Q9Y6E0 1-431 isoform Q9Y6E0-2): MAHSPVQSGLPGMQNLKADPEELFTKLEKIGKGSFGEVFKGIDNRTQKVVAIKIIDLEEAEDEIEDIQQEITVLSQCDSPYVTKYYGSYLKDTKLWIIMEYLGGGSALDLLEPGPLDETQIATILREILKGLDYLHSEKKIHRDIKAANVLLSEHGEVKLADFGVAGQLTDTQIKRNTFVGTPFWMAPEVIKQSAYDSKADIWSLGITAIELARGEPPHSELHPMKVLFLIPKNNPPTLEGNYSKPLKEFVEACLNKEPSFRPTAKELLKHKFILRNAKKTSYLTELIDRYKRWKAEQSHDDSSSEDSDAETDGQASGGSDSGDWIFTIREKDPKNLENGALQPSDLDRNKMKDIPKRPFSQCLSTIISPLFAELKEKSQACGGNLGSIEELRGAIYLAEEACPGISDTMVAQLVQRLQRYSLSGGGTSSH

As for `COCCOc1ccc2c(c1)ncn2-c1ccc2cccc(N3CCC(N)CC3)c2n1` [CP-673451], the IC50 (in general, the point on the concentration scale where inhibition reaches its midpoint) against MST3 came out at 260 nM.

The compound `COc1cc(Nc2c(C#N)cnc3cc(OCCCN4CCN(C)CC4)c(OC)cc23)c(Cl)cc1Cl` [bosutinib] displayed a half-maximal inhibitory concentration (IC50) at MST3 of 3 nM.

In the case of `CCN(CC)CCNC(=O)c1c(C)[nH]c(/C=C2\C(=O)Nc3ccc(F)cc32)c1C` [sunitinib], the “fold difference in MST3 inhibitory activity” value on MST3 (less active than the related compound(s) of the same scaffold) is given as 20 fold.

As to CDK1/2 inhibitor III, the “activity against CDK2” value in the test on CDK2 was “sub-nanomolar”. Further, the “activity against CDK1” value with CDK1 is “sub-nanomolar”.
